Patent US7745423B2, “Calcium/sodium salt of inositol tripyrophosphate as an allosteric effector of hemoglobin” (NormOxys, Inc, priority 2004, dated 2010)
Several values for one entry are separate records, joined by “and”; a condition that tells them apart may be missing. Equal values may be shown once.

Key:
[1] = test system: VEGF mRNA in Lewis Lung carcinoma (LLC) tumors; assay: VEGF mRNA (RT-PCR) in Lewis Lung carcinoma tumors of ITPP drinking mice; type: in vivo, C57BL/6 mice; details: LLC tumor-bearing mice, ITPP 20 g/L orally, day 9, versus controls
Description: ITPP, when administered orally, intravenously, or intraperitoneally, inhibits angiogenesis in growing tumors by enhancing the PO2 in the forming tumors. […] Thereafter, all animals received 1×10^6 Lewis Lung carcinoma (LLC) cells, injected in the dorsal cavity. At different time points, the VEGF mRNA were assayed by RT-PCR in the tumors growing in both groups of mice.
There was a difference in the level of mRNA of the VEGF gene in both groups. […] The RT-PCR agarose gel assay of VEGF mRNAs from tumor tissue taken from 2 mice each on day 15 after inoculation of LLC cells (track 1: controls, track 2: ITPP treated animals) and day 30 after inoculation (track 3: control animals, track 4: ITPP treated animals).
Quantification of the gel assays indicated a reduction by a factor of 10,000 of the amount of VEGF mRNAs detected in the tumors of animals having received ITPP, at day 9 and then, while differences remain between treated and untreated animals, they tend to decrease.

murine free Hb = murine free Hb (Mus musculus, UniProt P01942+P02088); assay: P50 of murine free Hb after incubation with compound (HEMOX analyzer); type: biochemical; details: for P50 (Torr) Hb + compound / P50 increase (%) + SD: murine free Hb, compound solution 60 mM
Chain of murine free Hb (P01942 2-142 limits assumed): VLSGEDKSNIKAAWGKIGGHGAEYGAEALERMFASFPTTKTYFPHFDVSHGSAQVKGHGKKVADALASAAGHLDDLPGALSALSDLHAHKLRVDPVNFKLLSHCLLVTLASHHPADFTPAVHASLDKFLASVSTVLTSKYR
Chain of murine free Hb (P02088 2-147 limits assumed): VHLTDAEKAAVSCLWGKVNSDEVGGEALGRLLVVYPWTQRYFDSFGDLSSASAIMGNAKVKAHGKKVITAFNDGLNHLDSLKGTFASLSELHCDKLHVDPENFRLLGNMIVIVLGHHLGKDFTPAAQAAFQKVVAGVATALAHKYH
Description: (§1) For the in vitro experiments, ITPP was dissolved in deionized water, pH was adjusted at pH 7 and, for incubation with whole blood, the osmolarity of the ITPP solutions was adjusted with glucose to 270-297 mOsM. Mixtures of hemoglobin and ITPP were measured with a HEMOX analyzer (PD Marketing, London) immediately after mixing. Red blood cells were incubated with ITPP for 1 hour at 37° C. Following incubation, the cells were washed 3 times with Bis-Tris-buffer (pH=7.0) and then used for P50 measurement.

circulating RBCs = assay: P50 of circulating RBCs after oral ITPP in drinking water; type: in vivo; details: drinking water 20 g/L (0.27 mM, pH ~7.0) ad libitum
Description: ITPP was dissolved in drinking water at a 20 g/L-concentration (0.27 mM, pH ˜7.0.) and offered for drinking ad libitum.

murine whole blood = assay: P50 of murine whole blood after incubation with compound; type: cell-based
Description: as §1

human free Hb = human free Hb (Homo sapiens, UniProt P68871+P69905); assay: P50 of human free Hb after incubation with compound (HEMOX analyzer); type: biochemical; details: compound solution 60 mM
Chain of human free Hb (P69905 2-142 limits assumed): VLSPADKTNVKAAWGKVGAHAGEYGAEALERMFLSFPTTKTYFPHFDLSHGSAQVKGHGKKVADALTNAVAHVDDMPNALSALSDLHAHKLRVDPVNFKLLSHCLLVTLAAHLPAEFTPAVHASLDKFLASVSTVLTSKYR
Chain of human free Hb (P68871 2-147 limits assumed): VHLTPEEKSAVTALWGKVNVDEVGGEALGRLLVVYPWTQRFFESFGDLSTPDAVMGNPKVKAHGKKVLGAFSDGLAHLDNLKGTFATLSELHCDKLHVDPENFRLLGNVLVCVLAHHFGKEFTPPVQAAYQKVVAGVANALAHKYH
Description: as §1

human whole blood = assay: P50 of human whole blood after incubation with compound; type: cell-based; details: for P50 (Torr) compound + whole blood / P50 increase (%) + SD: human whole blood
Description: as §1
(§2) ITPP-Ca4Na acts as a powerful effector of hemoglobin shifting the oxygen fixation curves to the right, with respect to the natural effector bisphosphoglycerate. […] In FIG. 6, hemoglobin is incubated (at concentrations up to 100 mM final) with ITPP Ca4Na, for 1 hour at 37° C. and measured by TCS-hemox analyzer for p50 shifts. In FIG. 7, whole human blood was incubated (at concentrations up to 120 mM final) with ITPP Ca4Na, for 1 hour 37° C. and measured by TCS-hemox analyzer for p50 shifts.

hemoglobin [2] = target: T1, hemoglobin (Homo sapiens, UniProt P68871+P69905); details: higher than DPG; cited from earlier work
T1 sequence (P69905 2-142 limits assumed): as the sequence (P69905 2-142 limits assumed) above
T1 sequence (P68871 2-147 limits assumed): as the sequence (P68871 2-147 limits assumed) above

porcine whole blood = assay: P50 of porcine whole blood after incubation with compound; type: cell-based; details: compound 60 mM
Description: as §1

porcine free Hb = porcine free Hb (Sus scrofa, UniProt P01965+P02067); assay: P50 of porcine free Hb after incubation with compound (HEMOX analyzer); type: biochemical; details: compound solution 60 mM
Chain of porcine free Hb (P01965 whole entry): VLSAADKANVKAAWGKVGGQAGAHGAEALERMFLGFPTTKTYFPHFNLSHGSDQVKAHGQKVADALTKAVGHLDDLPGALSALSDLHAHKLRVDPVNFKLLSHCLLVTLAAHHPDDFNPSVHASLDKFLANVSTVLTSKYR
Chain of porcine free Hb (P02067 2-147 limits assumed): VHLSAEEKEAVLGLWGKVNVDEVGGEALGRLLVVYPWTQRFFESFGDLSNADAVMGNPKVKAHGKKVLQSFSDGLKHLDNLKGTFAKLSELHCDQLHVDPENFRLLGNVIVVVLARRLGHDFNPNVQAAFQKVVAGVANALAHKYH
Description: as §1

[3] = test system: hypoxic endothelial cells; assay: ITPP-Ca/Na loaded red blood cells on hypoxic endothelial cells in vitro; type: cell-based
hemoglobin [4] = target: T1, hemoglobin; assay: p50 shift of hemoglobin incubated with ITPP Ca4Na (TCS-hemox analyzer); type: biochemical; details: up to 100 mM final, 1 hour at 37° C.
Description: as §2

For `O=P1(O)OC2C3OP(=O)(O)OP(=O)(O)OC3C3OP(=O)(O)OP(=O)(O)OC3C2OP(=O)(O)O1` (stereo not drawn) [ITPP, inositol-tripyrophosphate], the “reduction factor of the amount of VEGF mRNAs detected in the tumors” value [1] was 10,000, the “P50 shift to higher PO2” value (murine free Hb; murine hemoglobin, maximum observed) was “up to 250%” and the “shift of the P50 value of circulating RBCs” value (circulating RBCs) was “significant shift”. The “P50 shift to higher PO2” value (murine whole blood; maximum observed) was “up to 40%”.

For `CN(C)C1CCCCC1.CN(C)C1CCCCC1.CN(C)C1CCCCC1.CN(C)C1CCCCC1.CN(C)C1CCCCC1.CN(C)C1CCCCC1.O=P1(O)OP(=O)(O)O[C@H]2[C@H](O1)[C@@H]1OP(=O)(O)OP(=O)(O)O[C@@H]1[C@H]1OP(=O)(O)OP(=O)(O)O[C@H]21` (racemic) [Compound 7, N,N-dimethylcyclohexyl ammonium salt of ITPP], the “P50 (Torr) Hb + compound” value (murine free Hb) was 45.1 Torr, the “P50 increase (%) + SD” value (murine free Hb) was 81 ± 15% and the “P50 (Torr) compound + whole blood” value (murine whole blood; compound 30 mM) was 52.0 Torr. The “P50 increase (%) + SD” value (murine whole blood; compound 30 mM) was 30 ± 3%.

For `C1CNCCN1.C1CNCCN1.C1CNCCN1.O=P1(O)OP(=O)(O)O[C@H]2[C@H](O1)[C@@H]1OP(=O)(O)OP(=O)(O)O[C@@H]1[C@H]1OP(=O)(O)OP(=O)(O)O[C@H]21` (racemic) [Compound 14, tripiperazinium salt of ITPP], the “P50 (Torr) Hb + compound” value (murine free Hb) was 82.9 Torr, the “P50 increase (%) + SD” value (murine free Hb) was 254 ± 49% and the “P50 (Torr) compound + whole blood” value (murine whole blood; compound 30 mM) was 41.9 Torr. The “P50 increase (%) + SD” value (murine whole blood; compound 30 mM) was 7 ± 1%.

With `NC1CCCCCCC1.NC1CCCCCCC1.NC1CCCCCCC1.NC1CCCCCCC1.NC1CCCCCCC1.NC1CCCCCCC1.O=P1(O)OP(=O)(O)O[C@H]2[C@H](O1)[C@@H]1OP(=O)(O)OP(=O)(O)O[C@@H]1[C@H]1OP(=O)(O)OP(=O)(O)O[C@H]21` (racemic) [Compound 12, cyclooctyl ammonium salt of ITPP] the “P50 (Torr) Hb + compound” value (murine free Hb) was 30.6 Torr, the “P50 increase (%) + SD” value (murine free Hb) was 23 ± 5% and the “P50 (Torr) compound + whole blood” value (murine whole blood; compound 30 mM) was 41.3 Torr. For the same molecule, the “P50 increase (%) + SD” value (murine whole blood; compound 30 mM) was 9 ± 1%.

With `O=P1(O)OP(=O)(O)O[C@H]2[C@H](O1)[C@@H]1OP(=O)(O)OP(=O)(O)O[C@@H]1[C@H]1OP(=O)(O)OP(=O)(O)O[C@H]21.c1ccncc1.c1ccncc1.c1ccncc1.c1ccncc1.c1ccncc1.c1ccncc1` (racemic) [Compound 4, pyridinium salt of ITPP] the “P50 (Torr) Hb + compound” value (murine free Hb) was 50.0 Torr, the “P50 increase (%) + SD” value (murine free Hb) was 100 ± 18% and the “P50 (Torr) Hb + compound” value (human free Hb) was 31.6 Torr. For the same molecule, the “P50 increase (%) + SD” value (human free Hb) was 107 ± 22%, the “P50 (Torr) compound + whole blood” value (human whole blood; compound 30 mM) was 24.3 Torr and the “P50 increase (%) + SD” value (human whole blood; compound 30 mM) was 10 ± 4%. For the same molecule, the “P50 (Torr) compound + whole blood” value (murine whole blood; compound 30 mM) was 42.7 Torr and the “P50 increase (%) + SD” value (murine whole blood; compound 30 mM) was 13 ± 2%.

For `O=P1([O-])OP(=O)([O-])O[C@H]2[C@H](O1)[C@@H]1OP(=O)([O-])OP(=O)([O-])O[C@@H]1[C@H]1OP(=O)([O-])OP(=O)([O-])O[C@H]21.[Ca+2].[Ca+2].[Ca+2]` (racemic) [Compound 15, myo-inositol tripyrophosphate-calcium salt], the “P50 (Torr) Hb + compound” value (murine free Hb) was 61.9 Torr, the “P50 increase (%) + SD” value (murine free Hb) was 130 ± 30% and the “P50 (Torr) Hb + compound” value (human free Hb) was 33.1 Torr. The “P50 increase (%) + SD” value (human free Hb) was 170% and 170 ± 32%, the “P50 (Torr) compound + whole blood” value (human whole blood; compound 30 mM) was 31.0 Torr and the “P50 increase (%) + SD” value (human whole blood; compound 30 mM) was 25% and 25 ± 3%. For the same molecule, the “P50 (Torr) compound + whole blood” value (murine whole blood; compound 30 mM) was 42.3 Torr, the “P50 increase (%) + SD” value (murine whole blood; compound 30 mM) was 8 ± 2% and the “P50 (Torr) compound + whole blood” value (murine whole blood; compound 60 mM) was 55.3 Torr.

In the case of `O=P(O)(O)O[C@H]1[C@H](OP(=O)(O)O)[C@@H](OP(=O)(O)O)[C@H](OP(=O)(O)O)[C@@H](OP(=O)(O)O)[C@H]1OP(=O)(O)O` [IHP, inositol hexaphosphate], the “affinity to hemoglobin relative to DPG” value (hemoglobin [2]) is listed as 1000 fold.

With piperazinium salt of ITPP [Compound 13] the “P50 (Torr) Hb + compound” value (murine free Hb) was 67.7 Torr, the “P50 increase (%) + SD” value (murine free Hb) was 189 ± 43% and the “P50 (Torr) compound + whole blood” value (murine whole blood; compound 30 mM) was 41.7 Torr. For the same molecule, the “P50 increase (%) + SD” value (murine whole blood; compound 30 mM) was 10 ± 2%.

For `O=P1([O-])OP(=O)([O-])O[C@H]2[C@H](O1)[C@@H]1OP(=O)([O-])OP(=O)([O-])O[C@@H]1[C@H]1OP(=O)([O-])OP(=O)([O-])O[C@H]21.[Na+].[Na+].[Na+].[Na+].[Na+].[Na+]` (racemic) [Compound 5, myo-inositol tripyrophosphate-sodium salt], the “P50 (Torr) compound + whole blood” value (porcine whole blood) was 44.2 Torr, the “P50 (Torr) Hb + compound” value (murine free Hb) was 69.7 Torr and the “P50 increase (%) + SD” value (murine free Hb) was 180 ± 25%. The “P50 (Torr) Hb + compound” value (human free Hb) was 49.8 Torr, the “P50 increase (%) + SD” value (human free Hb) was 225 ± 19% and the “P50 (Torr) compound + whole blood” value (human whole blood; compound 60 mM) was 30.8 Torr. For the same molecule, the “P50 (Torr) compound + whole blood” value (murine whole blood; compound 4 mM) was 47.4 Torr, the “P50 (Torr) Hb + compound” value (porcine free Hb) was 68.1 Torr and the “P50 increase (%) + SD” value (porcine free Hb) was 209 ± 39%.

With `O=P1([O-])OP(=O)([O-])O[C@H]2[C@H](O1)[C@@H]1OP(=O)([O-])OP(=O)([O-])O[C@@H]1[C@H]1OP(=O)([O-])OP(=O)([O-])O[C@H]21.[Ca+2].[Na+].[Na+].[Na+].[Na+]` (racemic) [ITPP-Ca/Na, mixed calcium/sodium salt of inositol-tripyrophosphate] the “effect on HIF-1 induction, VEGF and angiogenesis (FIG. 1)” value [3] was “suppression of HIF-1 induction, VEGF and angiogenesis”.

In the case of `O=P1([O-])OC2C3OP(=O)([O-])OP(=O)([O-])OC3C3OP(=O)([O-])OP(=O)([O-])OC3C2OP(=O)([O-])O1.[Ca+2].[Na+].[Na+].[Na+].[Na+]` (stereo not drawn) [ITPP-Ca4Na, monocalcium tetrasodium myo-inositol 1,6:2,3:4,5 trispyrophosphate], the “p50 values of whole human blood (FIG. 7)” value (human whole blood; up to 120 mM final, 1 hour 37° C.) is reported as “increase with concentration” and the “p50 values of hemoglobin (FIG. 6)” value (hemoglobin [4]) is reported as “increase with concentration”.

For `NC1CCCCCC1.NC1CCCCCC1.NC1CCCCCC1.NC1CCCCCC1.NC1CCCCCC1.NC1CCCCCC1.O=P1(O)OP(=O)(O)O[C@H]2[C@H](O1)[C@@H]1OP(=O)(O)OP(=O)(O)O[C@@H]1[C@H]1OP(=O)(O)OP(=O)(O)O[C@H]21` (racemic) [Compound 11, cycloheptyl ammonium salt of ITPP], the “P50 (Torr) Hb + compound” value (murine free Hb) was 43.8 Torr, the “P50 increase (%) + SD” value (murine free Hb) was 71 ± 3% and the “P50 (Torr) compound + whole blood” value (murine whole blood; compound 30 mM) was 45.5 Torr. For the same molecule, the “P50 increase (%) + SD” value (murine whole blood; compound 30 mM) was 20 ± 2%.
